# Counter-ions that a name gives are not always drawn. Like-named read-outs stand apart in the source and are kept apart here.
# Columns and labels:
# Solubility in water = assay type: physicochemical
# physchem = settings: for half-life / Half-Life in Neutral Water at 100° C.: buffer; for hydrolysis rate / reaction rate (comparison in words): deionized water
# Description: In the following examples, various ester hydrolysis reactions were run in the presence of calcium carbonate (CaCO3) to simulate the consumption of filter cake material. The acid evolved in each reaction was measured per unit of time. The acid generated upon hydrolysis was rapidly consumed in a secondary reaction that produced carbon dioxide (CO2). The half-life was secured when half of the CaCO3 was consumed. That is, using PV=nRT, the amount of CaCO3 that would yield approximately 1 liter of CO2 was calculated to be about 4.47 grams. We doubled the amount of CaCO3 (8.94 grams) for the reactions and then calculated the half-life based on the yield of 1 liter of CO2. Unless otherwise specified, all half-life quotations are actually the time required for 4.47 grams of CaCO3 to be consumed.
# The following general procedure was used in each of the examples. The closed system reactor shown in FIG. 1 was used to measure the amount of CO2 gas that evolved in each reaction. Water or brine was added to a boiling flask 10, which was heated to 100° C. […] Once the liquid was boiling, a weighed amount of ester was added to flask 10. The amount of ester employed was always in ratio to the water or to the make-up water used to formulate the brine except where commercially available brines were used. Following addition of the ester to the boiling liquid, a reflux condenser 12 was affixed to flask 10. The top of condenser 12 was fixed with an adapter 14 to an inlet tube 18 in a 2-hole rubber stopper 16. The inlet tube 18 was passed through stopper 16, providing a seal. An outlet tube 22 was run from the bottom of a flask 20 to a 1,000 mL graduated cylinder 24. The flask 20 was charged with XP-07 base oil, commercially available from Halliburton Energy Services, Inc. The outlet tube 22 served the purpose of discharging the oil into graduated cylinder 24. The hydrolysis reaction produced acid in flask 10 that reacted with the CaCO3 to produce CO2 gas. The gas displaced the oil in flask 20 into graduated cylinder 24. The rate of CO2 evolution thus could be monitored visually by reading of the amount of oil in graduated cylinder 24 per unit of time.
# Solutions containing various esters of lactic acid and of glycerol (i.e., monoacetin, ethyl lactate, triacetin, tripropionin), butyl formate (a control), and BDF-325 diethyleneglycol diformate (a control) in neutral water were prepared and combined with a molar ratio of CaCO3. Hydrolysis reactions were then carried out using the resulting solutions at 100° C. The hydrolysis reactions were monitored, and the half-lives of the esters were compared. The volume of oil displaced by the CO2 gas is plotted as a function of time in FIG. 2. […] The butyl formate to CaCO3 molar ratio was doubled for comparison purposes.
# Solutions containing 10 volume % monoacetin, diacetin, and triacetin in deionized water were prepared and combined with a molar ratio of CaCO3. Hydrolysis reactions were then carried out using the resulting solutions at 100° C. The hydrolysis reactions were monitored, and the half-lives of the esters were compared. The volume of oil displaced by the CO2 gas is plotted as a function of time in FIG. 3.
# [1] = at 100° C.; cited from earlier work
# [2] = Half-Life in Neutral Water at 100° C.
# [3] = hydrolysis in neutral water at 100° C.
Structure (SMILES),half-life (physchem; [2]),hydrolysis rate / reaction rate (comparison in words) (physchem; 100° C.),Pseudo First Order Rate Constant (physchem; [3]),other results
CC(=O)OCC(O)COC(C)=O [Diacetin],,very similar,4.75 × 10^−5 sec.^−1,"Half-Life in Neutral Water at 100° C. (physchem): 14,600 seconds"
COC(=O)C(C)O (centres unmarked) [Methyl lactate],2.71 h,,2.1 × 10^−5 sec.^−1,
CC(=O)OCC(COC(C)=O)OC(C)=O [Triacetin],2.73 h,very similar,7.04 × 10^−5 sec.^−1,
CCC(=O)OCC(COC(=O)CC)OC(=O)CC [Tripropionin],,,,"Pseudo First Order Rate Constant (physchem): 1.05 × 10^−5 sec.^−1; Half-Life in Neutral Water at 100° C. (physchem): 32,344.83 seconds"
CC(=O)O [acetic acid],,,,strength of the acid (pH) [1]: 4.76
"O=COCCOCCOC=O [diethyleneglycol diformate, reference compound]",,,,half-life (physchem; half-life): 0.3 to 0.333 h

# Continued, in another order:
half-life (physchem; [2]),hydrolysis rate / reaction rate (comparison in words) (physchem; 100° C.),Pseudo First Order Rate Constant (physchem; [3]),Structure (SMILES),other results
21.3 h,faster than that of the butyl formate,9.03 × 10^−6 sec.^−1,CCCCOC(=O)C(C)O (centres unmarked) [Butyl lactate],solubility in water (Solubility in water): slightly soluble
8.71 h,,2.2 × 10^−5 sec.^−1,CCOC(=O)C(C)O (centres unmarked) [Ethyl Lactate],"hydrolysis in deionized water and various brines (physchem; 10 volume % in deionized water and various brines, 100° C.): performed consistently; half-life (physchem; half-life): 10 to 11 h"
,,1.8 × 10^−5 sec.^−1,CC(=O)OCC(O)CO (centres unmarked) [Monoacetin],"half-life versus targeted range (greater than 10 hours at 100° C. desired) (physchem; 10 volume % in deionized water, 100° C.): within the targeted range; consumed more slowly relative to the other two acetins (physchem; 10 volume % in deionized water, 100° C., vs triacetin and diacetin): 4-5 times; Half-Life in Neutral Water at 100° C. (physchem): 38,400 seconds"
25.8 h,,7.4 × 10^−6 sec.^−1,CCCOC(=O)C(C)O (centres unmarked) [Propyl lactate],
,slow reaction rate,,"CCCCOC=O [butyl formate, reference compound]",solubility in water (Solubility in water): poor solubility
